Experimental data: patent US20110165652A1, “COMPOSITIONS, METHODS AND SYSTEMS FOR SINGLE MOLECULE SEQUENCING” (LIFE TECHNOLOGIES CORPORATION, priority 2008, published 2011)

Test system: 5′ fluorescein-labeled primer:template duplex
Experiment: Ensemble primer extension with gamma-labeled dNTP by Phi29 mutant protein
Type: biochemical
Conditions: cysteine to serine variants
Source text: Table 1, below, summarizes the ability of each mutant Phi29 polymerase to incorporate gamma-labeled nucleotides (as indicated in the column entitled “Ensemble Extension Activity”), fidelity of replication (as indicated in the column entitled “Fidelity”) and for activity in a single-molecule detected system, as depicted in FIGS. 20-59′ and 69-76 and associated description (see below), and indicated in the last column, entitled “Activity on Detection System.” Each and every mutation introduced into a given Phi29 mutant protein is listed in the column entitled “Mutations”; mutations are designated by the original amino acid/its position/its replacement, e.g., V250A means that valine at position 250 was replaced by alanine by site specific mutagenesis. If two or more amino acid substitutions are made, then each is designated as above and separated by a “/”. The predicted effect of a given mutation on polymerase activity, based on structure-function analysis of Phi29 polymerase, is provided in the column entitled “Expected Effect.” The various Phi29 mutants generated via selective mutagenesis, along with any applicable results of extension studies, fidelity assays and single molecule detection studies using each mutant protein, are collectively summarized in Table 1, below. To perform the extension studies, 330 nM Phi29 mutant protein and 100 nM 5′ fluorescein-labeled primer:template duplex were co-incubated in a solution comprising 50 mM Tris (pH 7.0), 2 mM MnCl2, 2 mM DTT, 0.1% Triton-X-100, 0.01% Tween-20. The reactions were initiated by addition of 0.5 μM or 5 μM of gamma-labeled dNTP, and quenched via addition of 30 mM EDTA at timepoints ranging from 10 seconds to 5 minutes. The reaction products were then separated on a 20% denaturing acrylamide gel and imaged on a Bio-Rad Molecular Imager FX. The intensity of each reaction product was quantified using Bio-Rad Quantity One software. FIGS. 20-59′ depict the results of extension studies conducted using specific Phi29 mutants.

Substance	Ensemble Extension Activity (polymerase active)
C530S: Phi29 exo(−) (D12A/D66A) polymerase mutant [Variant C530S]	Active
C22S/C290S/C530S: Phi29 exo(−) (D12A/D66A) polymerase mutant	Slightly less
C290S: Phi29 exo(−) (D12A/D66A) polymerase mutant [Variant C290S]	Active
C22S/C290S/C448S: Phi29 exo(−) (D12A/D66A) polymerase mutant	Slightly less
C22S/C448S/C530S: Phi29 exo(−) (D12A/D66A) polymerase mutant	Slightly less
C22S: Phi29 exo(−) (D12A/D66A) polymerase mutant [Variant C22S]	Active
C290S/C448S/C530S: Phi29 exo(−) (D12A/D66A) polymerase mutant	Slightly less
C448S: Phi29 exo(−) (D12A/D66A) polymerase mutant [Variant C448S]	Active

Same assay, conditions: relative to parent Phi29 exo(−) D12A/D66A

Substance	Ensemble Extension Activity: activity with base-labeled nucleotides
Y254V: Phi29 exo(−) (D12A/D66A) polymerase mutant [Variant Y254V]	incorporation, but increased
Y254F: Phi29 exo(−) (D12A/D66A) polymerase mutant [Variant Y254F]	incorporation, but increased

Same assay, conditions: relative to parent Phi29 exo(−) D12A/D66A; 0.5 μM or 5 μM gamma-labeled dNTP, 10 seconds to 5 minutes

Substance	Ensemble Extension Activity: γ-nucleotide incorporation
E486D: Phi29 exo(−) (D12A/D66A) polymerase mutant [Variant E486D]	Decreased γ-nucleotide
V250I/E375Y: Phi29 exo(−) (D12A/D66A) polymerase mutant	Decreased rate
E486A: Phi29 exo(−) (D12A/D66A) polymerase mutant [Variant E486A]	Slightly decreased γ-
E375Y/V250R: Phi29 exo(−) (D12A/D66A) polymerase mutant	no activity
K371A: Phi29 exo(−) (D12A/D66A) polymerase mutant [Variant K371A]	Slightly lower than
L384R: Phi29 exo(−) (D12A/D66A) polymerase mutant [Variant L384R]	Slightly decreased γ-
E375Y/V250D: Phi29 exo(−) (D12A/D66A) polymerase mutant	no activity
K512A: Phi29 exo(−) (D12A/D66A) polymerase mutant [Variant K512A]	Slightly decreased γ-
E375Y/V250W: Phi29 exo(−) (D12A/D66A) polymerase mutant	no activity
N387Y: Phi29 exo(−) (D12A/D66A) polymerase mutant [Variant N387Y]	Significantly decreased γ-
K383R: Phi29 exo(−) (D12A/D66A) polymerase mutant [Variant K383R]	Slightly lower than
K383A: Phi29 exo(−) (D12A/D66A) polymerase mutant [Variant K383A]	Slightly lower than
Y254V: Phi29 exo(−) (D12A/D66A) polymerase mutant [Variant Y254V]	Decreased γ-nucleotide
V250A/E375A/Q380A/D456E: Phi29 exo(−) (D12A/D66A) polymerase mutant	Impaired
E375Y/V250K: Phi29 exo(−) (D12A/D66A) polymerase mutant	no activity
K383P: Phi29 exo(−) (D12A/D66A) polymerase mutant [Variant K383P]	decreased γ-nucleotide

Substance	Ensemble Extension Activity: γ-nucleotide incorporation
V250I/E375A/Q380A: Phi29 exo(−) (D12A/D66A) polymerase mutant	Decreased rate
E375W: Phi29 exo(−) (D12A/D66A) polymerase mutant [Variant E375W]	Increased γ-nucleotide
K478A: Phi29 exo(−) (D12A/D66A) polymerase mutant [Variant K478A]	Decreased γ-nucleotide
Y254F: Phi29 exo(−) (D12A/D66A) polymerase mutant [Variant Y254F]	Decreased γ-nucleotide
E375Y/V250S: Phi29 exo(−) (D12A/D66A) polymerase mutant	decreased
K371T: Phi29 exo(−) (D12A/D66A) polymerase mutant [Variant K371T]	Slightly lower than
E375Y/V250C: Phi29 exo(−) (D12A/D66A) polymerase mutant	decreased
E375Y/V250P: Phi29 exo(−) (D12A/D66A) polymerase mutant	no activity
S388G: Phi29 exo(−) (D12A/D66A) polymerase mutant [Variant S388G]	Decreased γ-nucleotide
E375Y/V250G: Phi29 exo(−) (D12A/D66A) polymerase mutant	no activity
E375Y/V250H: Phi29 exo(−) (D12A/D66A) polymerase mutant	decreased rate
E375Y/V250T: Phi29 exo(−) (D12A/D66A) polymerase mutant	decreased
V250I/E375C: Phi29 exo(−) (D12A/D66A) polymerase mutant	Decreased rate
E375Y/V250L: Phi29 exo(−) (D12A/D66A) polymerase mutant	decreased
E375Y/V250Q: Phi29 exo(−) (D12A/D66A) polymerase mutant	decreased
